Data reported in patent US9255100B2 (BAYER INTELLECTUAL PROPERTY GMBH, priority 2010, dated 2016).

Molecular target: T1, N-terminally GST-tagged human full length recombinant Mps-1 kinase (Homo sapiens, UniProt P33981)
T1 construct: N-terminally GST-tagged human full length recombinant Mps-1 kinase; purchased Invitrogen, Karslruhe, Germany PV4071
T1 sequence (P33981 1-857): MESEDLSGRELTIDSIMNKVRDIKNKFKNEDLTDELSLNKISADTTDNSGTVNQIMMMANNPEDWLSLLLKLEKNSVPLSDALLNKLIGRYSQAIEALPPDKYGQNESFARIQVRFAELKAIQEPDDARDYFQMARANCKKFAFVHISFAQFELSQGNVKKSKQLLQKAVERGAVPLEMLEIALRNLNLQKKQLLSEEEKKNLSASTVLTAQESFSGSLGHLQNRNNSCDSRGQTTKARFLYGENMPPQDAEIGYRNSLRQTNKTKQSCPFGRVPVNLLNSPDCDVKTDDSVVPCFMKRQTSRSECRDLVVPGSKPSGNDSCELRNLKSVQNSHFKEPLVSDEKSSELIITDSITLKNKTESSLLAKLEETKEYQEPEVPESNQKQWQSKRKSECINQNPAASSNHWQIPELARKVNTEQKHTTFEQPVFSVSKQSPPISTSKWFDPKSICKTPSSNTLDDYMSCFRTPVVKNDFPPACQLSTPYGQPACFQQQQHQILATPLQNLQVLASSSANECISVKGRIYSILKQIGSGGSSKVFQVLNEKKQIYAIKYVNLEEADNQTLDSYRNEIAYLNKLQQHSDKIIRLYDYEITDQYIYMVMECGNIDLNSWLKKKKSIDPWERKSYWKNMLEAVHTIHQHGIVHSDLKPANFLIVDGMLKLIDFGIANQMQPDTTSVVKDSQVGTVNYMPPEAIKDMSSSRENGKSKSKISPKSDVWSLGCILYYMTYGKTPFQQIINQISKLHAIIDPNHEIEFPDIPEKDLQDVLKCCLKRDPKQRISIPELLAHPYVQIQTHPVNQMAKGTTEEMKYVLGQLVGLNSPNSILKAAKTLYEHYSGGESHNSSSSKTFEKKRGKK
Assay: Mps-1 kinase assay (TR-FRET)
Format: biochemical
Conditions: Mps1 IC50 [nM], 10 μM ATP, 1 μM peptide substrate, 60 min at 22° C.
Outline: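 Kinase activity of N-terminally GST-tagged full-length recombinant Mps-1, used at about 1 nM final and set within the linear range, was measured on a biotinylated peptide substrate. Phosphopeptide was detected by TR-FRET from Eu-anti-phospho(Ser/Thr) antibody to streptavidin-XLent after 1 h at 22° C.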

Structure (SMILES): CNC(=O)c1ccc(-c2cnc3c(NCC(C)C)cc(Cl)nn23)cc1 [Example 178, 4-{6-Chloro-8-[(2-methylpropyl)amino]imidazo[1,2-b]pyridazin-3-yl}-N-methylbenzamide]
- IC50: 172 nM

Structure (SMILES): Cc1cc(-c2cnc3c(NCC(C)(C)O)cc(Sc4cc(F)ccc4F)nn23)ccc1C(=O)NC1CC1 [Example 248, N-cyclopropyl-4-{6-[(2,5-difluorophenyl)sulfanyl]-8-[(2-hydroxy-2-methylpropyl)amino]imidazo[1,2-b]pyridazin-3-yl}-2-methylbenzamide]
- IC50: 0.5 nM

Structure (SMILES): Cc1cc(-c2cnc3c(NCC4CCS(=O)(=O)CC4)cc(Sc4cccc(F)c4)nn23)ccc1C(=O)NC1CC1 [Example 301, N-cyclopropyl-4-(8-{[(1,1-dioxidotetrahydro-2H-thiopyran-4-yl)methyl]amino}-6-[(3-fluorophenyl)sulfanyl]imidazo[1,2-b]pyridazin-3-yl)-2-methylbenzamide]
- IC50: 0.2 nM

Structure (SMILES): Cc1cc(-c2cnc3c(NCCC(F)(F)F)cc(Nc4cccc(C(C)C)c4)nn23)ccc1C(=O)NC1CC1 [Example 433, N-cyclopropyl-2-methyl-4-(6-{[3-(propan-2-yl)phenyl]amino}-8-[(3,3,3-trifluoropropyl)amino]imidazo[1,2-b]pyridazin-3-yl)benzamide]
- IC50: 0.6 nM

Structure (SMILES): Cc1ccc(Sc2cc(NCC(C)(C)O)c3ncc(-c4ccc(C(=O)NC5CC5)c(C)c4)n3n2)c(F)c1 [Example 360, N-cyclopropyl-4-{6-[(2-fluoro-4-methylphenyl)sulfanyl]-8-[(2-hydroxy-2-methylpropyl)amino]imidazo[1,2-b]pyridazin-3-yl}-2-methylbenzamide]
- IC50: 0.9 nM

Structure (SMILES): CNC(=O)N(C)CCCNc1cc(Oc2cccc(F)c2)nn2c(-c3ccc(C(=O)NC4CC4)c(C)c3)cnc12 [Example 503, N-cyclopropyl-4-[6-(3-fluoro-phenoxy)-8-({3-[methyl(methyl-carbamoyl)amino]propyl}amino)imidazo[1,2-b]pyridazin-3-yl]-2-methylbenzamide]
- IC50: 0.2 nM

Structure (SMILES): COC(C)(C)CNc1cc(-c2ccccc2CO)nn2c(-c3ccc(C(=O)NC4CC4)c(C)c3)cnc12 [Example 38, N-cyclopropyl-4-{6-[2-(hydroxymethyl)phenyl]-8-[(2-methoxy-2-methylpropyl)amino]imidazo[1,2-b]pyridazin-3-yl}-2-methylbenzamide]
- IC50: 10.3 nM

Structure (SMILES): Cc1cc(-c2cnc3c(NCC(C)(C)O)cc(N4CCCCC4)nn23)ccc1C(=O)NC1CC1 [Example 337, N-cyclopropyl-4-{8-[(2-hydroxy-2-methylpropyl)amino]-6-(piperidin-1-yl)imidazo[1,2-b]pyridazin-3-yl}-2-methyl-benzamide]
- IC50: 3.9 nM

Structure (SMILES): CC(C)CNc1cc(-c2cncc3ccccc23)nn2c(-c3ccc(C(=O)NC4CC4)cc3)cnc12 [Example 115, N-cyclopropyl-4-{6-(isoquinolin-4-yl)-8-[(2-methylpropyl)amino]imidazo[1,2-b]pyridazin-3-yl}benzamide]
- IC50: 27.5 nM

Structure (SMILES): Cc1cc(-c2cnc3c(NCC(C)(C)O)cc(Oc4ccccc4F)nn23)ccc1C(=O)NC1CC1 [Example 93, N-cyclopropyl-4-{6-(2-fluorophenoxy)-8-[(2-hydroxy-2-methylpropyl)amino]imidazo[1,2-b]pyridazin-3-yl}-2-methylbenzamide]
- IC50: 0.3 nM

Structure (SMILES): Cc1cc(-c2cnc3c(NCC4CCSCC4)cc(Oc4ccc(Cl)c(F)c4)nn23)ccc1C(=O)NC1CC1 [Example 291, 4-{6-(4-chloro-3-fluorophenoxy)-8-[(tetrahydro-2H-thiopyran-4-ylmethyl)amino]imidazo[1,2-b]pyridazin-3-yl}-N-cyclopropyl-2-methylbenzamide]
- IC50: 0.6 nM

Structure (SMILES): Cc1cc(-c2cnc3c(NCCC(F)(F)F)cc(Oc4cccc5c4NCCC5)nn23)ccc1C(=O)NC1CC1 [Example 466, N-cyclopropyl-2-methyl-4-{6-(1,2,3,4-tetrahydro-quinolin-8-yloxy)-8-[(3,3,3-trifluoropropyl)amino]imidazo[1,2-b]pyridazin-3-yl} benzamide]
- IC50: 4.8 nM

Structure (SMILES): CC(C)(O)CNc1cc(-c2ccncc2)nn2c(-c3ccc(C(=S)NC4CC4)cc3)cnc12 [Example 47, N-cyclopropyl-4-{8-[(2-hydroxy-2-methylpropyl)amino]-6-(pyridin-4-yl)imidazo[1,2-b]pyridazin-3-yl}benzenecarbothioamide]
- IC50: 2 nM

Structure (SMILES): Cc1cc(-c2cnc3c(NCC(C)(C)O)cc(Oc4cncc(C(N)=O)c4)nn23)ccc1C(=O)NC1CC1 [Example 411, 5-({3-[4-(cyclopropylcarbamoyl)-3-methylphenyl]-8-[(2-hydroxy-2-methylpropyl)amino]imidazo[1,2-b]pyridazin-6-yl}oxy)nicotinamide]
- IC50: 4.8 nM

Structure (SMILES): CC(C)CNc1cc(-c2cccc(CO)c2)nn2c(-c3ccc(C(=O)NC4CC4)cc3)cnc12 [Example 103, N-cyclopropyl-4-{6-[3-(hydroxymethyl)phenyl]-8-[(2-methylpropyl)amino]imidazo[1,2-b]pyridazin-3-yl}benzamide]
- IC50: < 1 nM

Structure (SMILES): FC(F)(F)CCNc1cc(-c2ccncc2)nn2c(-c3ccc(-c4cnc(C5CC5)[nH]4)cc3)cnc12 [Example 26, 3-[4-(2-Cyclopropyl-1H-imidazol-5-yl)phenyl]-6-(pyridin-4-yl)-N-(3,3,3-trifluoropropyl)imidazo[1,2-b]pyridazin-8-amine]
- IC50: 4.1 nM

Structure (SMILES): CCNC(=O)c1ccc(-c2cnc3c(NCCC(F)(F)F)cc(Oc4ccc(OC)cc4F)nn23)cc1C [Example 602, N-ethyl-4-{6-(2-fluoro-4-methoxyphenoxy)-8-[(3,3,3-trifluoropropyl)a-mino]imidazo[1,2-b]pyridazin-3-yl}-2-methylbenzamide]
- IC50: < 1 nM

Structure (SMILES): Cc1cc(-c2cnc3c(NCC4CCCCO4)cc(-c4ccncc4)nn23)ccc1C(=O)NC1CC1 (racemic) [Example 37, (RS)—N-cyclopropyl-2-methyl-4-{6-(pyridin-4-yl)-8-[(tetrahydro-2H-pyran-2-ylmethyl)amino]imidazo[1,2-b]pyridazin-3-yl}benzamide]
- IC50: < 1 nM

Structure (SMILES): CNC(=O)c1ccc(-c2cnc3c(NCCOC)cc(Oc4cc(F)ccc4C)nn23)cc1C [Example 585, 4-{6-(5-fluoro-2-methylphenoxy)-8-[(2-methoxyethyl)a-mino]imidazo[1,2-b]pyridazin-3-yl}-N,2-dimethylbenzamide]
- IC50: 5.4 nM

Structure (SMILES): Cc1cc(-c2cnc3c(NCC(C)(C)O)cc(Nc4ccccc4CO)nn23)ccc1C(=O)NC1CC1 [Example 434, N-cyclopropyl-4-(6-{[2-(hydroxymethyl)phenyl]amino}-8-[(2-hydroxy-2-methylpropyl)amino]imidazo[1,2-b]pyridazin-3-yl)-2-methylbenzamide]
- IC50: 1.3 nM

Structure (SMILES): CC(C)CNc1cc(-c2cccc3cnccc23)nn2c(-c3ccc(C(=O)NC4CC4)cc3)cnc12 [Example 118, N-cyclopropyl-4-{6-(isoquinolin-5-yl)-8-[(2-methylpropyl)amino]imidazo[1,2-b]pyridazin-3-yl}benzamide]
- IC50: 4.3 nM

Structure (SMILES): C=C(c1ccccc1)c1cc(NCCC(F)(F)F)c2ncc(-c3ccc(C(=O)NC4CC4)c(C)c3)n2n1 [Example 482, N-cyclopropyl-2-methyl-4-{6-(1-phenylethenyl)-8-[(3,3,3-trifluoropropyl)amino]imidazo[1,2-b]pyridazin-3-yl}benzamide]
- IC50: 0.6 nM
